Results from the supplement of paper PMC4862054.

Tests used:
Conditions in all cases: incubation time: 72 h
[1] = tested on: MFM-223; assay: normalised response (% of control), CellTiter-Glo; higher = more viable cells (100 = DMSO, 0 = benzethonium chloride kill control)
In short: (§1)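 Normalised signals at single concentrations make up the values. They come from breast cancer cell lines seeded (20 µl suspension) into 384-well plates with compound at 5 concentrations in 10-fold steps over a compound-specific 10,000-fold range, incubated 72 h, and read for CellTox Green fluorescence then CellTiter-Glo luminescence. Each plate was normalised to 0.1 % DMSO (100) and a positive kill control (0).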

[2] = tested on: HCC1599; assay: as above
In short: as §1

[3] = tested on: SK-BR-3; assay: as above
In short: as §1

[4] = tested on: MDA-MB-436; assay: as above
In short: as §1

[5] = tested on: Hs578T; assay: as above
In short: as §1

[6] = tested on: DU-4475; assay: as above
In short: as §1

[7] = tested on: CAL-120; assay: as above
In short: as §1

[8] = tested on: HCC1937; assay: as above
In short: as §1

[9] = tested on: CAL-85-1; assay: as above
In short: as §1

[10] = tested on: CAL-51; assay: as above
In short: as §1

[11] = tested on: MDA-MB-453; assay: as above
In short: as §1

[12] = tested on: BT-549; assay: as above
In short: as §1

[13] = tested on: BT-474; assay: as above
In short: as §1

[14] = tested on: CAL-148; assay: as above
In short: as §1

[15] = tested on: MDA-MB-231; assay: as above
In short: as §1

[16] = tested on: MDA-MB-468; assay: as above
In short: as §1

[17] = tested on: HCC1143; assay: as above
In short: as §1

[18] = tested on: HDQ-P1; assay: as above
In short: as §1

[19] = tested on: MCF-10A; assay: as above
In short: as §1

[20] = tested on: MFM-223; assay: normalised viability (% of control), CellTiter-Blue; higher = more viable cells (100 = DMSO, 0 = benzethonium chloride kill control)
Protocol: (§2)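 DSRT, CellTiter-Blue viability, 72 h incubation. Signal is normalised to DMSO and benzethonium chloride controls. Value is the normalised response at dose 1.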

[21] = tested on: HCC1599; assay: as above
Protocol: as §2

[22] = tested on: SK-BR-3; assay: as above
Protocol: as §2

[23] = tested on: MDA-MB-436; assay: as above
Protocol: as §2

[24] = tested on: Hs578T; assay: as above
Protocol: as §2

[25] = tested on: DU-4475; assay: as above
Protocol: as §2

[26] = tested on: CAL-120; assay: as above
Protocol: as §2

[27] = tested on: HCC1937; assay: as above
Protocol: as §2

[28] = tested on: CAL-85-1; assay: as above
Protocol: as §2

[29] = tested on: CAL-51; assay: as above
Protocol: as §2

[30] = tested on: MDA-MB-453; assay: as above
Protocol: as §2

[31] = tested on: BT-549; assay: as above
Protocol: as §2

[32] = tested on: BT-474; assay: as above
Protocol: as §2

[33] = tested on: CAL-148; assay: as above
Protocol: as §2

[34] = tested on: MDA-MB-231; assay: as above
Protocol: as §2

[35] = tested on: MDA-MB-468; assay: as above
Protocol: as §2

[36] = tested on: HCC1143; assay: as above
Protocol: as §2

[37] = tested on: HDQ-P1; assay: as above
Protocol: as §2

Structure (SMILES) | normalised response [1] | normalised response [2] | normalised response [3] | normalised response [4] | normalised response [5] | normalised response [6] | normalised response [7] | normalised response [8] | normalised response [9] | normalised response [10] | normalised response [11] | normalised response [12] | normalised response [13] | normalised response [14] | normalised response [15] | normalised response [16] | normalised response [17] | normalised response [18] | normalised response [19] | normalised viability [20] | normalised viability [21] | normalised viability [22] | normalised viability [23] | normalised viability [24] | normalised viability [25] | normalised viability [26] | normalised viability [27] | normalised viability [28] | normalised viability [29] | normalised viability [30] | normalised viability [31] | normalised viability [32] | normalised viability [33] | normalised viability [34] | normalised viability [35] | normalised viability [36] | normalised viability [37]
Cn1c(CCCC(=O)O)nc2cc(N(CCCl)CCCl)ccc21 [Bendamustine] (1 nM) | 106% | 99.5% | 117% | 97.5% | 99.8% | 108% | 99.5% | 103% | 105% | 75.8% | 127% | 101% | 107% | 116% | 106% | 108% | 104% | 102% | 103% | 94.8% | 107% | 93.2% | 109% | 104% | 111% | 90.5% | 103% | 90.2% | 102% | 109% | 106% | 108% | 108% | 116% | 110% | 112% | 65.9%
C[C@]12CC[C@@H]3c4ccc(O)cc4C[C@@H](CCCCCCCCC[S+]([O-])CCCC(F)(F)C(F)(F)F)[C@H]3[C@@H]1CC[C@@H]2O (stereo partly specified) [Fulvestrant] (1 nM) | 104% | 90.3% | – | 105% | 111% | 102% | 97.4% | 96.9% | 101% | 119% | 112% | 98.4% | 103% | 103% | 101% | 97.8% | 105% | 99.3% | 103% | 74.9% | 94.6% | 108% | 106% | 90.2% | 97.6% | 77.8% | 87.6% | 78.7% | 111% | 100% | 89.9% | 70.6% | 102% | 79% | 93.2% | 79.1% | 93.6%
CC1(C)NC(=O)N(c2ccc([N+](=O)[O-])c(C(F)(F)F)c2)C1=O [Nilutamide] (1 nM) | 103% | 109% | 111% | 102% | 101% | 105% | 99.1% | 98.4% | 100% | 93.2% | 105% | 103% | 108% | 111% | 97.4% | 106% | 101% | 101% | 106% | 100% | 85.1% | 99.1% | 123% | 126% | 115% | 86.6% | 114% | 96% | 100% | 112% | 95.1% | 95.7% | 103% | 131% | 108% | 99.5% | 125%
C[C@@H](Oc1cc(-c2cnn(C3CCNCC3)c2)cnc1N)c1c(Cl)ccc(F)c1Cl [Crizotinib] (1 nM) | 101% | 106% | – | 103% | 101% | 105% | 91.7% | 105% | 96.6% | 117% | 100% | 91.8% | 101% | 91.3% | 108% | 99.8% | 102% | 96.4% | 94.9% | 87.8% | 85.4% | 98.5% | 74.1% | 90.5% | 101% | 90.6% | 105% | 83.9% | 108% | 95.3% | 75.4% | 113% | 101% | 93.3% | 91.4% | 86.5% | 61.5%
